For 1 compound, IC50 results are on record in ChEMBL document CHEMBL1150965, “Aculeoside B, a new bisdesmosidic spirostanol saponin from the underground parts of Ruscus aculeatus” (J Nat Prod, 1998).

Molecules are shown by their SMILES. Values after ≈ are worked out from the molar mass of the structure shown.

The assay concerns HL-60. Put plainly: Cytostatic activity against human HL60 cells after 72 hrs by MTT assay. Format: functional, cell-based. To be noted: HL-60, 72 h. (In general: Formazan colour is commonly taken as a measure of viable cells.)

What is called IC50 is the concentration that gives 50% inhibition. A lower IC50 goes with greater potency in that assay. In turn, `C=C1CO[C@@]2(O[C@H]3C[C@H]4[C@@H]5CC=C6C[C@@H](O)C[C@@H](O[C@@H]7OC[C@H](O)[C@H](O)[C@H]7O[C@@H]7O[C@@H](C)[C@H](OC(C)=O)[C@@H](OC(C)=O)[C@H]7OC(C)=O)[C@]6(C)[C@H]5CC[C@]4(C)[C@H]3[C@@H]2C)[C@@H](O)[C@H]1O[C@@H]1O[C@H](C)C(=O)[C@H](O)[C@H]1O` [ACULEOSIDE A] registered an IC50 of 0.48 µg/mL (≈ 0.476 µM).
